# Test results reported in patent US12552824B2, “C-mannoside compounds useful for the treatment of urinary tract infections” (GLAXOSMITHKLINE INTELLECTUAL PROPERTY DEVELOPMENT LIMITED, priority 2018, dated 2026).
# Experiments:
# FimH = molecular target: T1, FimH (Escherichia coli, UniProt Q1R2J4); format: cell-based; conditions: concentration reducing bacterial agglutination of guinea pig red blood cells by greater than 90%; UTI89 bacteria;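 further: concentration in nM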
# T1 construct: endogenous in cells; host or cells: E. coli UTI89 whole bacteria, agglutinating guinea pig red blood cells
# Protocol: Hemagglutination Inhibition Assay (HAI)
# The hemagglutination inhibition (HAI) assay was performed with UTI89 bacteria and guinea pig red blood cells, as previously described (S. J. Hultgren, W. R. Schwan, A. J. Schaeffer, J. L. Duncan Infect. Immun. 1986, 54, 613-620 and Jarvis, C.; Han, Z.; Kalas, V.; Klein, R.; Pinkner, J. S.; Ford, B.; Binkley, J.; Cusumano, C. K.; Cusumano, Z.; Mydock-McGrane, L.; Hultgren, S. J.; Janetka, J. W., ChemMedChem 2016, 11, 367-373).
# [1] = Rat pharmacokinetics: IV infusion 1 mg/kg, then PO 5 mg/kg; blood and urine by LC-MS/MS; format: in vivo, Male Wistar Han rats; conditions: for bioavailability: male, Wistar Han; for bioavailability / AUC: whole blood; for bioavailability / % F: oral bioavailability, ratio of dose-normalised AUC PO (5 mg/kg) and IV infusion (1 mg/kg); for Ue % po: percentage of oral dose (5 mg/kg) eliminated unchanged in urine; for AUC: area under blood concentration-time profile, PO 5 mg/kg, male Wistar Han rats, n = 3
# Source text: General Assays for Obtaining AUC Oral h*μm, % F, and Ue % PO Values
# Male Wistar Han rats were purchased from Vital River Laboratory Animal Technology Co. Ltd (Beijing, China). The animals were approx. 6-8 weeks old with body weights of 200-300 g on the dosing date. The animals were housed in a 12-hour light/12-hour dark cycle environment and had free access to food and water. All animals were fed prior to dosing. Studies were approved by the Pharmaron Institutional Animal Care and Use Committee (IACUC).
# Test article was administered as an intravenous infusion for 1 hour (1 mg/kg) at 5 mL/kg/h. After 48 h, animals received a single oral dose (5 mg/kg, free form) at a dose volume of 10 mL/kg, respectively. Blood samples were collected at various time points after IV infusion and PO administrations. Urine samples were collected at various time points after IV infusion and PO administrations.
# Test article was dissolved in DMSO with vortexing and sonification to obtain a stock solution. An aliquot of the stock solution was mixed with 10% HP-β-CD in saline with vortexing to obtain a solution with concentration at 0.2 mg/mL of test article.
# Test article was added into 1% Methyl Cellulose with vortexing and sonication to obtain a homogeneous suspension with concentration at 0.5 mg/mL of test article.
# For IV infusion (1 mg/kg) administration, blood samples were collected from each animal at 0, 0.25, 0.5, 0.75, 1, 1.08, 1.25, 1.5, 1.75, 2, 3, 5, 8, 12, 24 hour post-dose.
# For PO (5 mg/kg) administration, blood samples were collected from each animal at 0, 0.25, 0.5, 1, 1.5, 2, 3, 4, 6, 8, 12, 24 hour post-dose.
# Blood samples (50 μL) were collected from each animal via jugular vein. These blood samples were placed into tubes containing K2EDTA. Whole blood was mixed with same volume of water and inverted several times. The blood samples were stored at −75±15° C. until analysis.
# For IV infusion (1 mg/kg) administration, urine samples were collected from each animal at 0-4, 4-8, 8-12, 12-24 hour post-dose.
# For PO (5 mg/kg) administration, urine samples were collected from each animal at 0-4, 4-8, 8-12, 12-24 hour post-dose.
# Urine samples were collected continuously into containers maintained over dry ice at the intervals outlined below and stored at −80° C. prior to analysis.
# 55 μL of standards, 55 μL of QC samples or 55 μL of unknown samples (50 μL of blood or urine with 5 μL 50% acetonitrile) were mixed to 200 μL of acetonitrile containing IS (dexamethasone) to precipitate proteins. Then the samples were vortexed for 30 sec. After centrifugation at 4° C., 4700 rpm for 30 min, and 5 μL of the supernatant was injected into the LC-MS/MS system for quantitative analysis.
# Test article blood and urine concentrations for each animal following IV infusion at 1 mg/kg and PO at 5 mg/kg were used to calculate pharmacokinetic parameters by employing a non-compartmental analysis (Phoenix™ WinNonlin® 7.0). The linear trapezoidal algorithm was used for AUC calculation.
Compound,HAI titer EC > 90 (FimH),bioavailability [1] [%],Ue % po [1],AUC [1] [µM·h],% F [1]
"Cc1cc(-c2cc(F)c(C)c(F)c2)ccc1[C@@H](O)[C@H]1O[C@H](CO)[C@@H](O)[C@H](O)[C@@H]1O [Example 1, (2R,3S,4S,5S,6R)-2-((R)-(3′,5′-Difluoro-3,4′-dimethyl-[1,1′-biphenyl]-4-yl)(hydroxy)methyl)-6-(hydroxymethyl)tetrahydro-2H-pyran-3,4,5-triol]",“++++” (<50 “++++”),10 to 30,“++” (0.5 <= x <= 5%),< 0.5,
"Cc1cc(-c2cc(F)c(Cl)c(F)c2)ccc1[C@@H](O)[C@H]1O[C@H](CO)[C@@H](O)[C@H](O)[C@@H]1O [Example 2, (2R,3S,4S,5S,6R)-2-((R)-(4′-Chloro-3′,5′-difluoro-3-methyl-[1,1′-biphenyl]-4-yl)(hydroxy)methyl)-6-(hydroxymethyl)tetrahydro-2H-pyran-3,4,5-triol]",“++++” (<50 “++++”),10 to 30,“++” (0.5 <= x <= 5%),> 1,
"Cc1cc(-c2cc(F)c(Br)c(F)c2)ccc1[C@@H](O)[C@H]1O[C@H](CO)[C@@H](O)[C@H](O)[C@@H]1O [Example 3, (2R,3S,4S,5S,6R)-2-((R)-(4′-Bromo-3′,5′-difluoro-3-methyl-[1,1′-biphenyl]-4-yl)(hydroxy)methyl)-6-(hydroxymethyl)tetrahydro-2H-pyran-3,4,5-triol]",“++++” (<50 “++++”),10 to 30,“++” (0.5 <= x <= 5%),> 1,
"C=Cc1c(F)cc(-c2ccc([C@@H](O)[C@H]3O[C@H](CO)[C@@H](O)[C@H](O)[C@@H]3O)c(C)c2)cc1F [Example 4, (2R,3S,4S,5S,6R)-2-((R)-(3′,5′-Difluoro-3-methyl-4′-vinyl-[1,1′-biphenyl]-4-yl)(hydroxy)methyl)-6-(hydroxymethyl)tetrahydro-2H-pyran-3,4,5-triol]",“++++” (<50 “++++”),10 to 30,“++” (0.5 <= x <= 5%),< 0.5,
"Cc1cc(-c2ccc(C(F)(F)F)c(F)c2)ccc1[C@@H](O)[C@H]1O[C@H](CO)[C@@H](O)[C@H](O)[C@@H]1O [Example 5, (2R,3S,4S,5S,6R)-2-((R)-(3′-Fluoro-3-methyl-4′-(trifluoromethyl)-[1,1′-biphenyl]-4-yl)(hydroxy)methyl)-6-(hydroxymethyl)tetrahydro-2H-pyran-3,4,5-triol]",“++++” (<50 “++++”),10 to 30,“++” (0.5 <= x <= 5%),0.5 to 1,
"Cc1cc(-c2cc(F)cc(C(F)(F)F)c2)ccc1[C@@H](O)[C@H]1O[C@H](CO)[C@@H](O)[C@H](O)[C@@H]1O [Example 6, (2R,3S,4S,5S,6R)-2-((R)-(3′-Fluoro-3-methyl-5′-(trifluoromethyl)-[1,1′-biphenyl]-4-yl)(hydroxy)methyl)-6-(hydroxymethyl)tetrahydro-2H-pyran-3,4,5-triol]",“++++” (<50 “++++”),10 to 30,“++” (0.5 <= x <= 5%),< 0.5,
"Cc1cc(-c2cc(F)c(F)c(F)c2)ccc1[C@@H](O)[C@H]1O[C@H](CO)[C@@H](O)[C@H](O)[C@@H]1O [Example 7, (2R,3S,4S,5S,6R)-2-((R)-Hydroxy(3′,4′,5′-trifluoro-3-methyl-[1,1′-biphenyl]-4-yl)methyl)-6-(hydroxymethyl)tetrahydro-2H-pyran-3,4,5-triol]",“++++” (<50 “++++”),> 30,“+++” (>5%),> 1,
"OC[C@H]1O[C@H]([C@H](O)c2ccc(-c3cc(F)cc(F)c3)cc2C(F)(F)F)[C@@H](O)[C@@H](O)[C@@H]1O [Example 8, (2R,3S,4S,5S,6R)-2-((R)-(3′,5′-Difluoro-3-(trifluoromethyl)-[1,1′-biphenyl]-4-yl)(hydroxy)methyl)-6-(hydroxymethyl)tetrahydro-2H-pyran-3,4,5-triol]",“++++” (<50 “++++”),> 30,“++” (0.5 <= x <= 5%),< 0.5,
"Cc1cc(-c2cc(F)cc(F)c2)ccc1[C@@H](O)[C@H]1O[C@H](CO)[C@@H](O)[C@H](O)[C@@H]1O [Example 9, (2R,3S,4S,5S,6R)-2-((R)-(3′,5′-Difluoro-3-methyl-[1,1′-biphenyl]-4-yl)(hydroxy)methyl)-6-(hydroxymethyl)tetrahydro-2H-pyran-3,4,5-triol]",“++++” (<50 “++++”),> 30,“+++” (>5%),0.5 to 1,
Cc1cc(F)c(-c2ccc([C@@H](O)[C@H]3O[C@H](CO)[C@@H](O)[C@H](O)[C@@H]3O)c(C)c2)cc1Cl [Example 11],“+++” (50-200 “+++”),,“++” (0.5 <= x <= 5%),,“+++” (>30%)
Cc1cc(-c2ccc(Cl)c(Cl)c2)ccc1[C@@H](O)[C@H]1O[C@H](CO)[C@@H](O)[C@H](O)[C@@H]1O [Example 15],“++++” (<50 “++++”),,“++” (0.5 <= x <= 5%),,“++” (10 <= x <= 30%)
Cc1cc(-c2cc(Cl)cc(Cl)c2)ccc1[C@@H](O)[C@H]1O[C@H](CO)[C@@H](O)[C@H](O)[C@@H]1O [Example 16],“++++” (<50 “++++”),,“++” (0.5 <= x <= 5%),,“++” (10 <= x <= 30%)
COc1cc(F)cc(-c2ccc([C@@H](O)[C@H]3O[C@H](CO)[C@@H](O)[C@H](O)[C@@H]3O)c(C)c2)c1 [Example 24],“++++” (<50 “++++”),,“++” (0.5 <= x <= 5%),,“++” (10 <= x <= 30%)
OC[C@H]1O[C@H]([C@H](O)c2c(F)cc(-c3cc(F)cc(F)c3)cc2C(F)(F)F)[C@@H](O)[C@@H](O)[C@@H]1O [Example 32],“++++” (<50 “++++”),,“++” (0.5 <= x <= 5%),,“++” (10 <= x <= 30%)
COc1cc(-c2ccc([C@@H](O)[C@H]3O[C@H](CO)[C@@H](O)[C@H](O)[C@@H]3O)c(C)c2)cc(C(F)(F)F)c1 [Example 61],“++++” (<50 “++++”),,“+” (<0.5%),,“++” (10 <= x <= 30%)
Cc1cc(-c2cc(F)c(C(F)(F)F)c(F)c2)ccc1[C@@H](O)[C@H]1O[C@H](CO)[C@@H](O)[C@H](O)[C@@H]1O [Example 64],“++++” (<50 “++++”),,“++” (0.5 <= x <= 5%),,“++” (10 <= x <= 30%)
Cc1cc(-c2cc(F)c(F)c(Cl)c2)ccc1[C@@H](O)[C@H]1O[C@H](CO)[C@@H](O)[C@H](O)[C@@H]1O [Example 73],“++++” (<50 “++++”),,“++” (0.5 <= x <= 5%),,“++” (10 <= x <= 30%)
Cc1cc(-c2cc(C(F)(F)F)cc(C(F)(F)F)c2)ccc1[C@@H](O)[C@H]1O[C@H](CO)[C@@H](O)[C@H](O)[C@@H]1O [Example 74],“++++” (<50 “++++”),,“+” (<0.5%),,“++” (10 <= x <= 30%)
Cc1cc(-c2cc(F)c(OC(C)C)c(F)c2)ccc1[C@@H](O)[C@H]1O[C@H](CO)[C@@H](O)[C@H](O)[C@@H]1O [Example 93],“++++” (<50 “++++”),,“+” (<0.5%),,“++” (10 <= x <= 30%)
